Data set [1] is described as follows: Drug localization in human MDA-MB-231 cells assessed as increase in fluorescent band intensity incubated for 30 mins in presence of UV irradiation by coomassie brilliant blue staining based SDS-PAGE analysis. The data set is classed as ADME, cell-based. Particulars: mda-mb-231, 0.5 h; call rule not given here.
The nature of data set [2]: Drug localization in human MDA-MB-231 cells assessed as increase in fluorescent band intensity at 20 uM incubated for 30 mins in presence of UV irradiation by coomassie brilliant blue staining based SDS-PAGE analysis. It counts as ADME, cell-based. To be noted: mda-mb-231, 0.5 h.
The nature of data set [3]: Drug localization in human membrane fraction of MDA-MB-231 cells assessed as increase in fluorescent band intensity at 10 uM incubated for 30 mins in presence of honokiol by coomassie brilliant blue staining based SDS-PAGE analysis. The data set is classed as ADME, cell membranes. Particulars: mda-mb-231, 0.5 h.
Data set [4] is described as follows: Drug localization in human MDA-MB-231 cells assessed as increase in fluorescent band intensity at 10 uM incubated for 30 mins in presence of 2-O-ethylhonokiol by coomassie brilliant blue staining based SDS-PAGE analysis. The data set is classed as ADME, cell-based. To be noted: mda-mb-231, 0.5 h.
A short description of data set [5]: Drug localization in human MDA-MB-231 cells assessed as increase in fluorescent band intensity at 1 to 10 uM incubated for 30 mins in presence of UV irradiation by coomassie brilliant blue staining based SDS-PAGE analysis. The data set is classed as ADME, cell-based. To be noted: mda-mb-231, 0.5 h, dose 1-10 µM.
Data set [6] can be described thus: Drug localization in human membrane fraction of MDA-MB-231 cells assessed as increase in fluorescent band intensity at 10 uM incubated for 30 mins in presence of 2-O-ethylhonokiol by coomassie brilliant blue staining based SDS-PAGE analysis. The data set is classed as ADME, cell membranes. Particulars: mda-mb-231, 0.5 h.
Data set [7] relates to MDA-MB-231. As to the kind of experiment: Cytotoxicity against human MDA-MB-231 cells assessed as inhibition of cell growth incubated for 48 hrs by MTT assay. The data set is classed as functional, cell-based. To be noted: MDA-MB-231, 48 h. For orientation: Tetrazolium dyes change colour on reduction, which living cells bring about.
Data set [8] deals with SK-OV-3. As to the kind of experiment: Cytotoxicity against human SK-OV-3 cells assessed as inhibition of cell growth incubated for 48 hrs by MTT assay. It counts as functional, cell-based. To be noted: SK-OV-3, 48 h.
Data set [9] concerns OVCAR-3. As to the kind of experiment: Cytotoxicity against human OVCAR-3 cells assessed as inhibition of cell growth incubated for 48 hrs by MTT assay. The data set is classed as functional, cell-based. To be noted: OVCAR-3, 48 h.
The nature of data set [10]: Drug localization in human MDA-MB-231 cells assessed as increase in fluorescent band intensity at 10 uM incubated for 30 mins in presence of honokiol by coomassie brilliant blue staining based SDS-PAGE analysis. Particulars: mda-mb-231, 0.5 h. It counts as ADME, cell-based.
Data set [11] can be described thus: Drug localization in human MDA-MB-231 cells assessed as increase in fluorescent band intensity at 20 uM incubated for 30 mins in absence of UV irradiation by coomassie brilliant blue staining based SDS-PAGE analysis. It counts as ADME, cell-based. To be noted: mda-mb-231, 0.5 h.
Data set [12] has as its target T1, 6-phosphogluconate dehydrogenase, decarboxylating (Homo sapiens) (UniProt P52209).
T1 sequence (whole entry): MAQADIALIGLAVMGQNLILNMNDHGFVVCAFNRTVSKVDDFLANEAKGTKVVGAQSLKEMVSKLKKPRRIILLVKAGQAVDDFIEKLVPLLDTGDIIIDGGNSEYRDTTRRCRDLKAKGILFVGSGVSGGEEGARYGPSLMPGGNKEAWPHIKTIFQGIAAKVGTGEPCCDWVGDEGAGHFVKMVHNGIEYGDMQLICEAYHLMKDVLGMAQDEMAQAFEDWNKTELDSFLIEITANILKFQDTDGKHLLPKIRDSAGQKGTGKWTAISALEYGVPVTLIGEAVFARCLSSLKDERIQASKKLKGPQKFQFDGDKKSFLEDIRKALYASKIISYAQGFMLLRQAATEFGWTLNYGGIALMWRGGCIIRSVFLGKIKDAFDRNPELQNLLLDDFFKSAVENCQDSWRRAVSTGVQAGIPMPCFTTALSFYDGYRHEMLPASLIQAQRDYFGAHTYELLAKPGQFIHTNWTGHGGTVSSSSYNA
Briefly: Binding affinity to PGD in human MDA-MB-231 cells assessed as change in melting temperature at 10 uM incubated for 1 hr by cellular thermal shift assay. It counts as cell-based.

Data set [13] deals with MDA-MB-231. As to the kind of experiment: Binding affinity to CAPN-1 in human MDA-MB-231 cells assessed as change in melting temperature at 10 uM incubated for 1 hr by cellular thermal shift assay. It counts as cell-based.
Data set [14] deals with T2, Protein LYRIC (Homo sapiens) (UniProt Q86UE4).
T2 sequence (whole entry): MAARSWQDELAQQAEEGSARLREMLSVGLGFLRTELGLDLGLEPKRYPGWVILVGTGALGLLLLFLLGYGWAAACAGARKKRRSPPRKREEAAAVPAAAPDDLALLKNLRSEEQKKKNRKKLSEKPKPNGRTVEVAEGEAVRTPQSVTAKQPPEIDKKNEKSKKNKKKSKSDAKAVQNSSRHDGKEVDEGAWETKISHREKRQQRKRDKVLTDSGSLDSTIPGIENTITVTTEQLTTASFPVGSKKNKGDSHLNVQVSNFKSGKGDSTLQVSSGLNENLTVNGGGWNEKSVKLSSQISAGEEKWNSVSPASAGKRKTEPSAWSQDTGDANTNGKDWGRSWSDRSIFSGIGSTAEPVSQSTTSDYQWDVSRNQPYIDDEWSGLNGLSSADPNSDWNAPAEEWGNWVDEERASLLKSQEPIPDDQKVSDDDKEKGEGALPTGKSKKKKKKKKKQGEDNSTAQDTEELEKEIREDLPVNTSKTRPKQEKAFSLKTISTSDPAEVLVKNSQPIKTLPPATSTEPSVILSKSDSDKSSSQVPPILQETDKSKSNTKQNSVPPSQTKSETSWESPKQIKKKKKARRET
As to the kind of experiment: Binding affinity to Lyric in human MDA-MB-231 cells assessed as change in melting temperature at 10 uM incubated for 1 hr by cellular thermal shift assay. It counts as cell-based.

Data set [15] concerns the target T3, Dipeptidyl peptidase 3 (Homo sapiens) (UniProt Q9NY33).
T3 sequence (whole entry): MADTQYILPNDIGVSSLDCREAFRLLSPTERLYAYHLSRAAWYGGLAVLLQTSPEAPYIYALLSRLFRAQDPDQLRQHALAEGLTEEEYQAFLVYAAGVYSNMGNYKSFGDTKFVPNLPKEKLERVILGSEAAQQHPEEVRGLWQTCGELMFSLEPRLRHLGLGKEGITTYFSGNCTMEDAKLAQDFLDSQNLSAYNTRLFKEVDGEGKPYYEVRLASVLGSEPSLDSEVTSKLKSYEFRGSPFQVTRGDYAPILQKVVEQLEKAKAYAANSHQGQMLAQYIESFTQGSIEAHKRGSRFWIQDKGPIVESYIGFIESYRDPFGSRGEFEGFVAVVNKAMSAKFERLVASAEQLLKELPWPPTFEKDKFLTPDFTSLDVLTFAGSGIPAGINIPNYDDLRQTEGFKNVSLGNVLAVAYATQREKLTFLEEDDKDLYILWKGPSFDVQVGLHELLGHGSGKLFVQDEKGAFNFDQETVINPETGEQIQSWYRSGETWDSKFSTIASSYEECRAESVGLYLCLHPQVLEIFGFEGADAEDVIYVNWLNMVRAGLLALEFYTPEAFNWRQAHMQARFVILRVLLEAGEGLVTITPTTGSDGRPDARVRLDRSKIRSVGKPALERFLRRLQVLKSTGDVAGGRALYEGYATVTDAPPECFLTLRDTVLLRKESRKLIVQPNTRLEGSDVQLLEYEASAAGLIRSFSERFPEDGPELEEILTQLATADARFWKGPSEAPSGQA
Briefly: Binding affinity to DPP3 in human MDA-MB-231 cells assessed as change in melting temperature at 10 uM incubated for 1 hr by cellular thermal shift assay. The data set is classed as cell-based.

Data set [16] is described as follows: Drug localization in human OVCAR-3 cells assessed as increase in fluorescent band intensity at 10 uM incubated for 30 mins by coomassie brilliant blue staining based SDS-PAGE analysis. The data set is classed as ADME, cell-based. To be noted: ovcar-3, 0.5 h.
Data set [17] in a line: Drug localization in human SK-OV-3 cells assessed as increase in fluorescent band intensity at 10 uM incubated for 30 mins by coomassie brilliant blue staining based SDS-PAGE analysis. The data set is classed as ADME, cell-based. Particulars: sk-ov-3, 0.5 h.

Structures are written as SMILES.

In the case of `C#CCCC1(CCC(=O)NCCCc2cc(-c3cc(CC=C)ccc3OCC)ccc2O)N=N1`, the Drug uptake result in data set [1] was “Dose-dependent-effect”; in data set [2] it was “Not_active”; in [3], “Not_active”; in [4], “Not_active”; in data set [5] it was “Not_active”; in data set [6], “Not_active”. Besides, the Drug uptake entry in data set [10] and in [11] was “Not_active” throughout. In addition, the IC50 came to 39 µM in [7], 44 µM in data set [8] and 50 µM in data set [9].
Take `C=CCc1ccc(O)c(-c2ccc(O)c(CC=C)c2)c1` [HONOKIOL]: the shift in melting temperature (ΔTm) in [12] was 1.6 °C; in data set [13], 4.3 °C; in data set [14], 1 °C; in data set [15] it was 2.3 °C. The IC50 amounted to 46 µM in data set [7], 48 µM in data set [8] and 51 µM in [9].
Regarding `C=CCc1ccc(OCC)c(-c2ccc(O)c(CCCn3cc(CCCC(=O)Nc4ccc(C(=O)c5ccc(NC(=O)CCCC[C@@H]6SC[C@@H]7NC(=O)N[C@@H]76)cc5)cc4)nn3)c2)c1`, the 50% inhibitory concentration (IC50) in [7], in data set [8] and in data set [9] was over 100 µM in each case.
For the molecule `C#CCCC1(CCC(=O)NCCCc2ccc(OCC)c(-c3ccc(O)c(CC=C)c3)c2)N=N1`, the Drug uptake result was “Active” in data set [16]; “Dose-dependent-effect” in [1]; “Active” in data set [2]; “Not_active” in data set [3]; “Active” in data set [17]; “Not_active” in data set [4]. The Drug uptake result in data set [5], in data set [6], in data set [10] and in [11] was “Not_active” each time. The IC50 in data set [7] is 37 µM; in data set [8], 39 µM; in data set [9], 30 µM.
Take `C=CCc1cc(-c2cc(Cc3cn(CCCCCC(=O)Nc4ccc(C(=O)c5ccc(NC(=O)CCCC[C@@H]6SC[C@@H]7NC(=O)N[C@@H]76)cc5)cc4)nn3)ccc2OCC)ccc1O`: the 50% inhibitory concentration (IC50) in data set [7], in [8] and in data set [9] was over 100 µM in each case.
In the case of `C=CCc1ccc(OCCCn2cc(CCCC(=O)Nc3ccc(C(=O)c4ccc(NC(=O)CCCC[C@@H]5SC[C@@H]6NC(=O)N[C@@H]65)cc4)cc3)nn2)c(-c2ccc(O)c(CC=C)c2)c1`, the IC50 in data set [7], in data set [8] and in data set [9] was over 100 µM each time.
For `C=CCc1ccc(OCC)c(-c2ccc(O)c(CC=C)c2)c1`, the results for the IC50 in [7], in [8] and in data set [9] were 28 µM, 43 µM and 37 µM, respectively.
As for `C=CCc1cc(-c2cc(CCCn3cc(CCCC(=O)Nc4ccc(C(=O)c5ccc(NC(=O)CCCC[C@@H]6SC[C@@H]7NC(=O)N[C@@H]76)cc5)cc4)nn3)ccc2OCC)ccc1O`, the half-maximal inhibitory concentration (IC50) in data set [7], in data set [8] and in [9] was over 100 µM throughout.

A word on the IC50: it is the concentration that inhibits the measured activity by half. As a reminder, the ΔTm is the shift of the melting midpoint relative to a reference.

Values taken from ChEMBL document CHEMBL6078672, “Chemical probes for the identification of the molecular targets of honokiol” (Eur J Med Chem, 2025).
